Data on two compounds can be found in patent US20020151551A1, “Use of growth hormone secretagogues in conjunction with physical exercise cross reference to related application” (priority 2000, published 2002).

Structures are written as SMILES.

The test system of experiment [1] is serum insulin-like growth factor-1; quadriceps muscle. The conditions noted are these: canines during remobilization; cited from earlier work.
The next experiment has as its system diet-induced catabolism. The conditions noted are these: orally active; cited from earlier work.
Experiment [2] deals with exercise-induced growth hormone secretion. Kind of experiment: Phase I double-blind, placebo-controlled, multiple dose evaluation: effect on exercise-induced growth hormone secretion (exercise bicycle). The conditions noted are these: for growth hormone AUC, End of Treatment, Mean: Day 7, calorically restricted obese subjects; for growth hormone AUC, End of Treatment, Mean / growth hormone AUC, Change, Mean: AUC up to 150 minutes post exercise; for growth hormone AUC, Change, Mean: Day 7 versus screening visit. It counts as in vivo, human. As to the method:
Phase I Double-Blind, Placebo-Controlled, Multiple Dose Evaluation of Test Compound in Calorically Restricted, Obese Men and Women
A total of 48 obese subjects, without significant other medical problems and a negative exercise tolerance test, were recruited for this study and placed on a caloric-restricted diet. Subjects had been randomized to either placebo, 3 mg po tid, 6 mg po tid or 10 mg po qam of the test compound, 2-amino-N-[2-(3a-(R)-benzyl-2-methyl-3-oxo-2,3,3a,4,6,7-hexahydro-pyrazolo[4,3-c]pyridin-5-yl)-1-(R)-benzyloxymethyl-2-oxo-ethyl]-isobutyramide, L-tartrate for a total of seven days.
One of the objectives of this study was to examine the effect of the test compound on exercise-induced growth hormone secretion. The testing was conducted on an exercise bicycle.
One of the efficacy measures of this study was the area under the growth hormone secretory response curve over time (AUC). The above table summarizes the growth hormone AUC values at the screening visit (“Before Treatment”) and at Day 7 (“End of Treatment”) for subjects, who completed exercise at both visits. Also, the AUC values for these subjects were calculated for up to 150 minutes post exercise. The “p-value” in the above table, which is associated with each active treatment group, is derived from comparing each active treatment group with the placebo group, using the two-sample Wilcoxon test.

As for `CC(C)(N)C(=O)N[C@H](COCc1ccccc1)C(=O)N1CCC2(CC1)CN(S(C)(=O)=O)c1ccccc12` [MK-677], in experiment [1], the “serum insulin-like growth factor-1 levels” value is recorded as “elevated levels of serum insulin-like growth factor-1”; the “size and strength of the quadriceps muscle” value is “increased the size and strength of the quadriceps muscle”. For the same compound, the diet-induced catabolism result with diet-induced catabolism was “reverses diet-induced catabolism”.

Consider `CN1N=C2CCN(C(=O)[C@@H](COCc3ccccc3)NC(=O)C(C)(C)N)C[C@@]2(Cc2ccccc2)C1=O.O=C(O)C(O)C(O)C(=O)O` [test compound, 2-amino-N-[2-(3a-(R)-benzyl-2-methyl-3-oxo-2,3,3a,4,6,7-hexahydro-pyrazolo[4,3-c]pyridin-5-yl)-1-(R)-benzyloxymethyl-2-oxo-ethyl]-isobutyramide, L-tartrate], for which the “growth hormone AUC, End of Treatment, Mean” value in experiment [2] (3 mg p.o. tid for seven days) turned out to be 384; in experiment [2] (6 mg p.o. tid for seven days) it was 395; in experiment [2] (10 mg p.o. qam for seven days), 927. Also, the “growth hormone AUC, Change, Mean” value in experiment [2] (3 mg p.o. tid for seven days) is 298; in experiment [2] (6 mg p.o. tid for seven days), 250; in experiment [2] (10 mg p.o. qam for seven days), 684. Further, the “effect on exercise-induced growth hormone secretion” value in experiment [2] (overall finding of the study, versus placebo) is given as “augmented exercise-induced growth hormone secretion”.
